Reference: patent publication US12221447B2, “Methods and compositions for drugs to treat ophthalmic diseases” (Duke University, priority 2018, dated 2025)

Assays:
[1] = target: T1, CaMKK2 auto-phosphorylation (Homo sapiens, UniProt Q96RR4); assay: HEK293 cells, ionomycin stimulation, Western blot for phospho-CaMKK2; type: cell-based; conditions: 10 μM; for inhibition of CaMKK2 auto-phosphorylation (densitometry): 2 hours pre-treatment, ionomycin 0.5 μg/mL 15 minutes; for inhibition of CaMKK2 auto-phosphorylation compared to STO-609: versus STO-609 10 μM
T1 construct: endogenous in cells; host or cells: HEK293
T1 sequence (Q96RR4 whole entry): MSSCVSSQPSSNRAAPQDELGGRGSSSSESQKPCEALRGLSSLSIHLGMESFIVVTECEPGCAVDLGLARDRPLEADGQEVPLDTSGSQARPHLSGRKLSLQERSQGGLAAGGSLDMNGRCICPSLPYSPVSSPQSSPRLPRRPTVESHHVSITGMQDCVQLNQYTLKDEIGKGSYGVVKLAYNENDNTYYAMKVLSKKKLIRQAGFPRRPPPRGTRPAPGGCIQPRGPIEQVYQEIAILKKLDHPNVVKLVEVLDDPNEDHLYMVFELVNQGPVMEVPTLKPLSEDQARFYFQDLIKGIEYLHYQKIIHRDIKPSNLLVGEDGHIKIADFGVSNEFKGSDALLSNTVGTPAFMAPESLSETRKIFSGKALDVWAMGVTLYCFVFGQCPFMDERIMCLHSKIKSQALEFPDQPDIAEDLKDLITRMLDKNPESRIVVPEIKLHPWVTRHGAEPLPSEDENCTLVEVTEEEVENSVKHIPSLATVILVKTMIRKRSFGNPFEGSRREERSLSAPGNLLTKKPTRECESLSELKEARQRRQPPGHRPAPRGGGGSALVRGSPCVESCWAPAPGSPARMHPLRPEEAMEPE
Protocol: (§1) Preliminary screening of Compounds EY301-EY305 was performed in vitro in HEK293 cells (all tested at 10 μM). In brief, HEK293 cells were cultured to sub confluence in […] complete media and 1% fetal bovine serum (FBS), incubated at 37° C. in 5% CO2. Cultured cells were then switched to serum-free media overnight prior to initiation of experiments. […] Cells were then stimulated with the calcium ionophore ionomycin (0.5 μg/mL) for 15 minutes, following which the cells were washed, harvested, and lysed for recovery of total protein using standard methods. Following standard protein gel electrophoresis, Western blot was then performed for either phospho-CaMKK2 (FIG. 4A) or phospho-AMPK (FIG. 4B) for each condition. Studies were performed in triplicate.

[2] = system: AMPK phosphorylation; assay: HEK293 cells, ionomycin stimulation, Western blot for phospho-AMPK; type: cell-based; conditions: 10 μM; for inhibition of phospho-AMPK (densitometry): 2 hours pre-treatment, ionomycin 0.5 μg/mL 15 minutes; for inhibition of phospho-AMPK compared to STO-609: versus STO-609 10 μM
Protocol: as §1

[3] = system: OGVHD mouse model; assay: Mouse model of OGVHD, proof-of-concept with topical lead SMICs (Example 11); type: in vivo, mice; conditions: for prevention of signs of OGVHD versus vehicle and prednisolone: 1.5 mg/mL topical daily for two weeks, p<0.05 vs vehicle or prednisolone
Protocol: Preclinical proof-of-concept studies in a mouse model of OGVHD were performed to assess the clinical efficacy of topical administration of the two most promising candidate SMICs identified in Examples 6 and 7, EY1006.A001.B001 and EY1001.A002.B001. […] Briefly, the OGVHD mouse model was initiated by isolation of bone marrow and splenic T cells from 2-3-month old mice C57BL/6J donor mice, and transplantation of isolated bone marrow and T cells to recipient 2-3-month old BALB/c mice, following ablation of recipient bone marrow. Recipient BALB/c mice were then allowed to convalesce for approximately 14 days before initiation of further experimental procedures.
OGVHD clinical findings include lid margin edema, lid crusting, tear film disruption, conjunctival chemosis, and keratopathy. These findings were clinically graded following one week and two weeks of treatment using a quantitative scoring system adapted from previously published studies (33, 34). […] By contrast, vehicle control-treated eyes had lid margin swelling and scarring with lash and periocular fur loss, eyelid crusting, chemosis, abnormal tear film, and keratopathy. […] For this scoring system and experiment Mild disease was score 0-5, moderate disease was score 6-10 and severe disease was score >10.

[4] = system: wild-type BALB/c mice; assay: NonGLP toxicology, in vivo tolerability of topically administered SMICs; conditions: topical 1.5 mg/mL twice daily for 14 days
Protocol: NonGLP toxicology studies of locally administered candidate SMICs EY1006.A001.B001 and EY1001.A002.B001 was assessed in 2-3-month old wild-type BALB/c mice. assessing local toxicity by clinical assessment and by histopathology. Both compounds were topically administered at 1.5 mg/mL twice daily for 14 days.

[5] = with sonication; cited from earlier work
[6] = system: experimental OGVHD
Source text: Ocular graft versus host disease (OGVHD), a disease in which T cells and macrophages are known to play key pathogenic roles, represents a model ocular inflammatory disease since A) it is known to share overlapping pathologic and clinical features with other, more common ocular inflammatory diseases (i.e. aqueous tear deficiency, meibomian gland dysfunction, uveitic disease, others); and B) the at-risk population is well defined since it occurs in individuals undergoing allogeneic bone marrow transplant for hematologic malignancies, autoimmune diseases, and other disorders. As such, experimental models of OGVHD represent attractive systems in which to study the therapeutic potential of targeting and inhibiting CaMKK2 for ophthalmic diseases. […] In brief, 2-3-month old mice of C57BL/6 and BALB/c strains are used for this model. C57BL/6 mice are sacrificed, following which RPMI-1640 medium is flushed in the diaphyseal channel of both recovered tibias and femurs. […]
Following BMT+T cell transfer, recipient BALB/c mice were allowed to convalesce for 14 days prior to initiation of experimental procedures. […] At the conclusion of the treatment period, eyes were then graded (in masked fashion) for signs of OGVHD and scored according to a modified clinical grading system (33, 34). […]

[7] = target: T2, aryl hydrocarbon receptors (Homo sapiens, UniProt P35869); conditions: suspected off-target effect; cited from earlier work
T2 sequence (P35869 11-848): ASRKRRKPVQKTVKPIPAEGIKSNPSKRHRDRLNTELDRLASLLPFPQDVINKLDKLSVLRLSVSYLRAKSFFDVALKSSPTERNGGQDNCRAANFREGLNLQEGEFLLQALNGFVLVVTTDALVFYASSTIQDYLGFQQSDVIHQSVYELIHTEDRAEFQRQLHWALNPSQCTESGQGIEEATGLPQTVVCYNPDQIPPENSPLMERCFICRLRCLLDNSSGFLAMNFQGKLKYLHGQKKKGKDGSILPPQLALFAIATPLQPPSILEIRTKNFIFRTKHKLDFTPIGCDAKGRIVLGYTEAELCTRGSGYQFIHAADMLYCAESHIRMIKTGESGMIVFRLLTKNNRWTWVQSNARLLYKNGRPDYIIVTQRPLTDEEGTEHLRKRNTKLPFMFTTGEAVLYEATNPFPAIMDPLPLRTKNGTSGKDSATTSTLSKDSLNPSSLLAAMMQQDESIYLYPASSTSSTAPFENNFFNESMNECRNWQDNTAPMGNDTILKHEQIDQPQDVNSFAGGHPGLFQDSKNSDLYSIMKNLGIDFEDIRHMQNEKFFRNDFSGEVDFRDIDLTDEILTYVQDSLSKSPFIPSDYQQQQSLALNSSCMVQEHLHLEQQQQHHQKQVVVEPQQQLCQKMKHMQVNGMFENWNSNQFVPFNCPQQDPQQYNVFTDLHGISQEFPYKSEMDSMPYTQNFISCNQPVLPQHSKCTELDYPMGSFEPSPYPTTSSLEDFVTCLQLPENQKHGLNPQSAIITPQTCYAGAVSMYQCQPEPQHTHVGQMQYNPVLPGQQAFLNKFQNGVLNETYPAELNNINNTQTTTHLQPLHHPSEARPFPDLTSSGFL

[8] = in vivo; cited from earlier work

Row | inhibition of CaMKK2 auto-phosphorylation (densitometry) [1] | inhibition of CaMKK2 auto-phosphorylation compared to STO-609 [1] | Compound | inhibition of phospho-AMPK (densitometry) [2] | inhibition of phospho-AMPK compared to STO-609 [2] | prevention of signs of OGVHD versus vehicle and prednisolone [3] | other results
1 | robust inhibition | more effective as compared to STO-609 | O=C(O)c1ccc2c(c1)[nH]c(=O)n1c3ccccc3nc21 [Compound 1] |  |  |  | 
2 | robust inhibition |  | Cn1c(=O)n2c3ccccc3nc2c2ccc(C(=O)O)cc21 [Compound 3] | partial inhibition | comparable to STO-609 |  | 
3 | robust inhibition | more effective as compared to STO-609 | CCn1c(=O)n2c3ccccc3nc2c2ccc(C(=O)O)cc21 [Compound 4] | partial inhibition | comparable to STO-609 |  | 
4 | robust inhibition |  | CC(C)Cn1c(=O)n2c3ccccc3nc2c2ccc(C(=O)O)cc21 [Compound 5] | partial inhibition | comparable to STO-609 |  | 
5 |  |  | O=C(O)c1ccc2c(c1)n(CCF)c(=O)n1c3ccccc3nc21 [Compound 7] |  |  | superior to vehicle and prednisolone | severity of clinical OGVHD findings ([3]; 1.5 mg/mL topical daily, from day 14 post-BMT for two weeks, n=5): reduced severity of clinical OGVHD findings with efficacy similar to STO-609; systemic toxicity [4]: no evidence of failure to thrive or mortality
6 |  |  | O=C(O)c1ccc2c3c1cccc3c(=O)n1c3ccccc3nc21 [STO-609, 7-oxo-7H-benzimidazo[2,1-a]benz[de]isoquinoline-3-carboxylic acid] |  |  | superior to vehicle and prednisolone | maximum concentration in DMSO [5]: 10 mM; severity of OGVHD, median score ([6]; STO-609 1.5 mg/mL local ocular, daily for 2 weeks from day 14 post-BMT, vehicle median score 17): 5; reduction in OGVHD score ([6]; stated as demonstrated and established for STO-609): 50%; off-target effect on aryl hydrocarbon receptors [7]: activation of aryl hydrocarbon receptors; oral bioavailability [8]: poor oral bioavailability
